Data published in PubChem BioAssay (NCI).
Several values for one entry are separate records, joined by “and”; a condition that tells them apart may be missing. Identical values can stand only once.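 Growth conditions: 96-well plates. Treatment: test compound, 48 hours, 5 concentrations. Analysis: linear interpolation between bracketing concentrations; unreached endpoints set to highest concentration. GI50 is the concentration that inhibits growth by half. Definition used: TGI = concentration required for complete inhibition of growth.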

What was measured:
Assay in all cases: growth of human tumour cells (NCI), 48 h
[1] = tested on: LOX IMVI melanoma
[2] = tested on: EKVX NSCLC
[3] = tested on: NCI-H460 lung
[4] = tested on: OVCAR-8 ovarian
[5] = tested on: HCC-2998 colon
[6] = tested on: SK-OV-3 ovarian
[7] = tested on: TK-10 renal
[8] = tested on: HOP-62 NSCLC
[9] = tested on: NCI-H522 lung
[10] = tested on: NCI-H226 lung

Row | Structure (SMILES) | TGI [1] | TGI [2] | TGI [3] | TGI [4] | TGI [5] | TGI [6] | TGI [7] | TGI [8] | GI50 [9] | TGI [9] | GI50 [10] | TGI [10] | GI50 [2] | GI50 [3] | GI50 [4] | GI50 [5] | GI50 [6] | GI50 [7] | GI50 [8] | GI50 [1]
1 | CCOP(=O)(OCC)C1CCCOC1=O (stereo unspecified) | > 100 µM | > 100 µM | > 100 µM | > 100 µM | > 100 µM | > 100 µM | > 100 µM | > 100 µM |  |  |  |  |  |  |  |  |  |  |  | 
2 | COc1ccc2c(c1)c(-c1nc(-c3c[nH]c4ccncc34)cs1)cn2C |  | 3.4 µM | 3.31 µM | 3.82 µM | 3.35 µM | 3.37 µM | 3.39 µM | 3.45 µM | 1.65 µM | 3.25 µM | 1.88 µM | 3.9 µM | 1.76 µM | 1.73 µM | 1.99 µM | 1.85 µM | 1.88 µM | 1.88 µM | 1.82 µM | 
3 | COc1cc(/C=C/C(=O)/C=C/c2ccc(-n3ccnc3C)cc2)ccc1O |  | 99 µM | 43.4 µM | > 100 µM | 3.21 µM | > 100 µM | 90.4 µM | 10.5 µM | 5.26 µM | 24.9 µM | 2.37 µM | 6.4 µM | 21 µM | 15.4 µM | 3.52 µM | 1.75 µM | 8.14 µM | 4.74 µM | 3.18 µM | 
4 | COc1ccc(-c2nc(-c3ccc(C)cc3)cn3ccnc23)cc1 | 13.8 µM | > 50 µM | 20.1 µM | > 5 µM | > 50 µM | > 50 µM | > 50 µM | > 50 µM |  |  |  |  | 4.38 µM | 2.53 µM | > 5 µM | 11.8 µM | 33.5 µM | 20.6 µM | 13.9 µM | 3.43 µM
5 | Cc1cccc(C)c1NC(=O)C1=NC(=S)NC(c2ccccc2)C1c1nc2ccccc2s1 (stereo unspecified) |  | > 100 µM | > 100 µM | > 100 µM | > 100 µM | > 100 µM | > 100 µM |  |  | > 100 µM |  | > 100 µM |  |  |  |  |  |  |  | 
6 | CCCCCCCCCCCCCCCCCCn1cc[n+](C)c1 | 0.479 µM and 1.75 µM |  | 1.8 µM and 2.11 µM |  | 1.26 µM and 0.913 µM | 4.14 µM and 2.62 µM | 1.97 µM and 1.44 µM |  |  |  |  |  |  | 0.521 µM and 0.659 µM |  | 0.303 µM and 0.192 µM | 1.23 µM and 1.1 µM | 0.47 µM and 0.26 µM |  | 0.189 µM and 0.406 µM
7 | CN(c1ccc(C(=O)c2ccc(N(C)S(C)(=O)=O)cc2)cc1)S(C)(=O)=O |  | > 100 µM | > 100 µM | > 100 µM |  | > 100 µM | > 100 µM |  |  | > 100 µM |  | > 100 µM |  |  |  |  |  |  |  | 
8 | N#C/C(=C/c1ccc2c(c1)OCO2)C(=O)c1ccccc1 |  | > 100 µM | > 100 µM | > 100 µM | > 100 µM | > 100 µM | > 100 µM | > 100 µM |  | > 100 µM |  |  |  |  |  |  |  |  |  | 
9 | c1ccc2c3c([nH]c2c1)[C@H]1C2CCCCN2CN1CC3 (stereo partly specified) |  | > 100 µM | > 100 µM | > 100 µM | > 100 µM | > 100 µM | > 100 µM | > 100 µM |  | > 100 µM |  |  |  |  |  |  |  |  |  | 
10 | COCN1COCN=C1NC#N |  | > 100 µM | > 100 µM | > 100 µM | > 100 µM | > 100 µM | > 100 µM | > 100 µM |  | > 100 µM |  | > 100 µM |  |  |  |  |  |  |  | 
11 | CCOC(=O)C(=O)CC1=Nc2ccccc2SC(c2cccc(C)c2)C1 (stereo unspecified) |  | 40.4 µM | 36.4 µM | 25.1 µM | 31.3 µM |  |  | 49.4 µM |  | 32.8 µM |  | 32.5 µM |  |  |  |  |  |  |  | 
12 | O=C1N2Cc3c4ccc5c3CN3C(=O)N6Cc7c(ccc(c7CN1C6(c1ccccc1)C23c1ccccc1)OCCOCCNCCOCCO4)OCCOCCNCCOCCO5 (stereo unspecified) |  | > 100 µM | > 100 µM | > 100 µM | > 100 µM | > 100 µM | 56 µM | > 100 µM |  | > 100 µM |  | > 100 µM |  |  |  |  |  |  |  | 
13 | N/C(=N\N=C\c1ccc(C(F)(F)F)cc1)NO |  | 33.7 µM | > 100 µM | 41.2 µM |  | > 100 µM | > 100 µM | 55 µM |  | 50.4 µM |  |  |  |  |  |  |  |  |  | 
14 | ClC/C=C/COC1CCCCO1 (stereo unspecified) |  | > 100 µM | > 100 µM | > 100 µM | > 100 µM | > 100 µM | > 100 µM | > 100 µM |  | 8.85 µM |  | > 100 µM |  |  |  |  |  |  |  | 
15 | COC(=O)[C@H](Cc1cnc[nH]1)NC(=O)[C@@H](NC(=O)Nc1cc(C(F)(F)F)cc(C(F)(F)F)c1)C(C)C |  |  | 37.3 µM | 31.6 µM | 30.7 µM | 32.5 µM | 30.7 µM | 33.7 µM | 13.1 µM | 27 µM | 16.8 µM | 36 µM |  | 18.7 µM | 16.5 µM | 15.9 µM | 18.5 µM | 16.6 µM | 19 µM | 
16 | CCCCCCCCCCCCCC[N+](C)(C)CCCCCCCCCCCCCC |  |  |  |  | 5.28 µM | 19.7 µM | 7.03 µM |  | 1.93 µM | 5.17 µM |  |  |  |  |  | 2.26 µM | 3.6 µM | 2.53 µM |  | 
17 | O=C1C=CC=C/C1=C1/SC(c2ccccc2)=C(O)N1c1ccccc1 |  | > 100 µM |  | > 100 µM | > 100 µM | > 100 µM | > 100 µM |  |  | > 100 µM |  | > 100 µM |  |  |  |  |  |  |  | 
18 | CNC(=O)c1c(NC(=O)c2ccc(C(C)(C)C)cc2)sc2c(CN(C)C)c(O)ccc12 | 2.38 µM |  | 2.53 µM |  | 2.94 µM |  | 3.94 µM |  |  |  |  |  |  | 1.14 µM |  | 1.34 µM |  | 1.94 µM |  | 1.13 µM
